Assay results as given in patent US6339042B1, “Herbicidal N-cyclohexadienyl heteroaryloxyacetamides” (American Cyanamid Co., priority 1999, dated 2002).

Legend:
Settings in all cases: three weeks after treatment
Amaranthus tuberculatus [1] = assay: Pre-emergence herbicidal evaluation, AMATA; format: in vivo
Description: (§1) The treated pots are then placed on greenhouse benches, watered and cared for in accordance with conventional greenhouse procedures.

Apera spica venti [2] = assay: Pre-emergence herbicidal evaluation, APESV; format: in vivo
Description: as §1

Echinochloa crus-galli [3] = assay: Post-emergence herbicidal evaluation, ECHCG
Alopecurus myosuroides [4] = assay: Pre-emergence herbicidal evaluation, ALOMY; format: in vivo
Description: as §1

Triticum aestivum [5] = assay: Pre-emergence herbicidal evaluation, TRZAW; format: in vivo
Description: as §1

Hordeum vulgare [6] = assay: Pre-emergence herbicidal evaluation, HORVW; format: in vivo
Description: as §1

Amaranthus tuberculatus [7] = assay: Post-emergence herbicidal evaluation, AMATA; format: in vivo
Glycine max [8] = assay: Pre-emergence herbicidal evaluation, GLXMA; format: in vivo
Description: as §1

Galium aparine = assay: Post-emergence herbicidal evaluation, GALAP
Lolium perenne [9] = assay: Pre-emergence herbicidal evaluation, LOLPE; format: in vivo
Description: as §1

Apera spica venti [10] = assay: Post-emergence herbicidal evaluation, APESV
Alopecurus myosuroides [11] = assay: Post-emergence herbicidal evaluation, ALOMY
Setaria viridis [12] = assay: Pre-emergence herbicidal evaluation, SETVI; format: in vivo
Description: as §1

Oryza sativum [13] = assay: Pre-emergence herbicidal evaluation, ORYSA; format: in vivo
Description: as §1

Hordeum vulgare [14] = assay: Post-emergence herbicidal evaluation, HORVW
Description: (§2) Each pot is examined three weeks after treatment and phytotoxicity is assessed according to the rating system set forth below.
(§3) These acetone solutions are diluted with water and the resulting formulations applied at dosage levels equivalent of about 0.4 to 0.1 kg per hectare of test compound per pot. After spraying the plants are placed on greenhouse benches and are cared for in the usual manner, commensurate with conventional greenhouse practices.

Lolium perenne [15] = assay: Post-emergence herbicidal evaluation, LOLPE
Description: as §2, §3

Echinochloa crus-galli [16] = assay: Pre-emergence herbicidal evaluation, ECHCG; format: in vivo
Description: as §1

Zea mays [17] = assay: Post-emergence herbicidal evaluation, ZEAMX
Description: as §2, §3

Setaria viridis [18] = assay: Post-emergence herbicidal evaluation, SETVI
Oryza sativum [19] = assay: Post-emergence herbicidal evaluation, ORYSA
Description: The compounds of the invention are tested for pre- and post-emergence herbicidal activity.
as §2, §3

Triticum aestivum [20] = assay: Post-emergence herbicidal evaluation, TRZAW
Description: as §2, §3

Glycine max [21] = assay: Post-emergence herbicidal evaluation, GLXMA
Zea mays [22] = assay: Pre-emergence herbicidal evaluation, ZEAMX; format: in vivo
Description: as §1

CCc1nnc(OCC(=O)N(C2=CC(C)(C)CC(C)=C2)C(C)C)s1 [Example 11]
phytotoxicity rating AMATA (Amaranthus tuberculatus [1]; 0.100 kg/ha): 0 (0 - No effect) | phytotoxicity rating AMATA (Amaranthus tuberculatus [1]; 0.200 kg/ha): 0 (0 - No effect) | phytotoxicity rating AMATA (Amaranthus tuberculatus [1]; 0.400 kg/ha): 0 (0 - No effect) | phytotoxicity rating AMATA (Amaranthus tuberculatus [1]; 0.800 kg/ha): 4 (4 - Injury) | phytotoxicity rating APESV (Apera spica venti [2]; 0.100 kg/ha): 0 (0 - No effect) | phytotoxicity rating APESV (Apera spica venti [2]; 0.200 kg/ha): 0 (0 - No effect) | phytotoxicity rating APESV (Apera spica venti [2]; 0.400 kg/ha): 5 (5 - Definite injury) | phytotoxicity rating APESV (Apera spica venti [2]; 0.800 kg/ha): 5 (5 - Definite injury) | phytotoxicity rating ECHCG (Echinochloa crus-galli [3]; 0.100 kg/ha): 0 (0 - No effect) | phytotoxicity rating ECHCG (Echinochloa crus-galli [3]; 0.200 kg/ha): 2 (2 - Slight effect) | phytotoxicity rating ECHCG (Echinochloa crus-galli [3]; 0.400 kg/ha): 3 (3 - Moderate effect) | phytotoxicity rating ALOMY (Alopecurus myosuroides [4]; 0.100 kg/ha): 7 (7 - Good herbicidal effect) | phytotoxicity rating ALOMY (Alopecurus myosuroides [4]; 0.200 kg/ha): 8 (8 - Approaching complete kill) | phytotoxicity rating ALOMY (Alopecurus myosuroides [4]; 0.400 kg/ha): 8 (8 - Approaching complete kill) | phytotoxicity rating ALOMY (Alopecurus myosuroides [4]; 0.800 kg/ha): 9 (9 - Complete kill) | phytotoxicity rating TRZAW (Triticum aestivum [5]; 0.100 kg/ha): 0 (0 - No effect) | phytotoxicity rating TRZAW (Triticum aestivum [5]; 0.200 kg/ha): 0 (0 - No effect) | phytotoxicity rating TRZAW (Triticum aestivum [5]; 0.400 kg/ha): 2 (2 - Slight effect) | phytotoxicity rating TRZAW (Triticum aestivum [5]; 0.800 kg/ha): 3 (3 - Moderate effect) | phytotoxicity rating HORVW (Hordeum vulgare [6]; 0.100 kg/ha): 0 (0 - No effect) | phytotoxicity rating HORVW (Hordeum vulgare [6]; 0.200 kg/ha): 0 (0 - No effect) | phytotoxicity rating HORVW (Hordeum vulgare [6]; 0.400 kg/ha): 1 (1 - Trace effect) | phytotoxicity rating HORVW (Hordeum vulgare [6]; 0.800 kg/ha): 4 (4 - Injury) | phytotoxicity rating AMATA (Amaranthus tuberculatus [7]; 0.100 kg/ha): 0 (0 - No effect) | phytotoxicity rating AMATA (Amaranthus tuberculatus [7]; 0.200 kg/ha): 3 (3 - Moderate effect) | phytotoxicity rating AMATA (Amaranthus tuberculatus [7]; 0.400 kg/ha): 4 (4 - Injury) | phytotoxicity rating GLXMA (Glycine max [8]; 0.100 kg/ha): 0 (0 - No effect) | phytotoxicity rating GLXMA (Glycine max [8]; 0.200 kg/ha): 0 (0 - No effect) | phytotoxicity rating GLXMA (Glycine max [8]; 0.400 kg/ha): 0 (0 - No effect) | phytotoxicity rating GLXMA (Glycine max [8]; 0.800 kg/ha): 0 (0 - No effect) | phytotoxicity rating GALAP (Galium aparine; 0.100 kg/ha): 0 (0 - No effect) | phytotoxicity rating GALAP (Galium aparine; 0.200 kg/ha): 0 (0 - No effect) | phytotoxicity rating GALAP (Galium aparine; 0.400 kg/ha): 0 (0 - No effect) | phytotoxicity rating LOLPE (Lolium perenne [9]; 0.100 kg/ha): 4 (4 - Injury) | phytotoxicity rating LOLPE (Lolium perenne [9]; 0.200 kg/ha): 5 (5 - Definite injury) | phytotoxicity rating LOLPE (Lolium perenne [9]; 0.400 kg/ha): 8 (8 - Approaching complete kill) | phytotoxicity rating LOLPE (Lolium perenne [9]; 0.800 kg/ha): 9 (9 - Complete kill) | phytotoxicity rating APESV (Apera spica venti [10]; 0.100 kg/ha): 0 (0 - No effect) | phytotoxicity rating APESV (Apera spica venti [10]; 0.200 kg/ha): 7 (7 - Good herbicidal effect) | phytotoxicity rating APESV (Apera spica venti [10]; 0.400 kg/ha): 5 (5 - Definite injury) | phytotoxicity rating ALOMY (Alopecurus myosuroides [11]; 0.100 kg/ha): 1 (1 - Trace effect) | phytotoxicity rating ALOMY (Alopecurus myosuroides [11]; 0.200 kg/ha): 7 (7 - Good herbicidal effect) | phytotoxicity rating ALOMY (Alopecurus myosuroides [11]; 0.400 kg/ha): 8 (8 - Approaching complete kill) | phytotoxicity rating SETVI (Setaria viridis [12]; 0.100 kg/ha): 6 (6 - Herbicidal effect) | phytotoxicity rating SETVI (Setaria viridis [12]; 0.200 kg/ha): 8 (8 - Approaching complete kill) | phytotoxicity rating SETVI (Setaria viridis [12]; 0.400 kg/ha): 8 (8 - Approaching complete kill) | phytotoxicity rating SETVI (Setaria viridis [12]; 0.800 kg/ha): 9 (9 - Complete kill) | phytotoxicity rating ORYSA (Oryza sativum [13]; 0.100 kg/ha): 0 (0 - No effect) | phytotoxicity rating ORYSA (Oryza sativum [13]; 0.200 kg/ha): 1 (1 - Trace effect) | phytotoxicity rating ORYSA (Oryza sativum [13]; 0.400 kg/ha): 4 (4 - Injury) | phytotoxicity rating ORYSA (Oryza sativum [13]; 0.800 kg/ha): 6 (6 - Herbicidal effect) | phytotoxicity rating HORVW (Hordeum vulgare [14]; 0.100 kg/ha): 0 (0 - No effect) | phytotoxicity rating HORVW (Hordeum vulgare [14]; 0.200 kg/ha): 0 (0 - No effect) | phytotoxicity rating HORVW (Hordeum vulgare [14]; 0.400 kg/ha): 1 (1 - Trace effect) | phytotoxicity rating LOLPE (Lolium perenne [15]; 0.100 kg/ha): 3 (3 - Moderate effect) | phytotoxicity rating LOLPE (Lolium perenne [15]; 0.200 kg/ha): 5 (5 - Definite injury) | phytotoxicity rating LOLPE (Lolium perenne [15]; 0.400 kg/ha): 8 (8 - Approaching complete kill) | phytotoxicity rating ECHCG (Echinochloa crus-galli [16]; 0.100 kg/ha): 7 (7 - Good herbicidal effect) | phytotoxicity rating ECHCG (Echinochloa crus-galli [16]; 0.200 kg/ha): 7 (7 - Good herbicidal effect) | phytotoxicity rating ECHCG (Echinochloa crus-galli [16]; 0.400 kg/ha): 9 (9 - Complete kill) | phytotoxicity rating ECHCG (Echinochloa crus-galli [16]; 0.800 kg/ha): 9 (9 - Complete kill) | phytotoxicity rating ZEAMX (Zea mays [17]; 0.100 kg/ha): 0 (0 - No effect) | phytotoxicity rating ZEAMX (Zea mays [17]; 0.200 kg/ha): 1 (1 - Trace effect) | phytotoxicity rating ZEAMX (Zea mays [17]; 0.400 kg/ha): 4 (4 - Injury) | phytotoxicity rating SETVI (Setaria viridis [18]; 0.100 kg/ha): 0 (0 - No effect) | phytotoxicity rating SETVI (Setaria viridis [18]; 0.200 kg/ha): 0 (0 - No effect) | phytotoxicity rating SETVI (Setaria viridis [18]; 0.400 kg/ha): 0 (0 - No effect) | phytotoxicity rating ORYSA (Oryza sativum [19]; 0.100 kg/ha): 0 (0 - No effect) | phytotoxicity rating ORYSA (Oryza sativum [19]; 0.200 kg/ha): 0 (0 - No effect) | phytotoxicity rating ORYSA (Oryza sativum [19]; 0.400 kg/ha): 2 (2 - Slight effect) | phytotoxicity rating TRZAW (Triticum aestivum [20]; 0.100 kg/ha): 0 (0 - No effect) | phytotoxicity rating TRZAW (Triticum aestivum [20]; 0.200 kg/ha): 0 (0 - No effect) | phytotoxicity rating TRZAW (Triticum aestivum [20]; 0.400 kg/ha): 1 (1 - Trace effect) | phytotoxicity rating GLXMA (Glycine max [21]; 0.100 kg/ha): 3 (3 - Moderate effect) | phytotoxicity rating GLXMA (Glycine max [21]; 0.200 kg/ha): 5 (5 - Definite injury) | phytotoxicity rating GLXMA (Glycine max [21]; 0.400 kg/ha): 5 (5 - Definite injury) | phytotoxicity rating ZEAMX (Zea mays [22]; 0.100 kg/ha): 0 (0 - No effect) | phytotoxicity rating ZEAMX (Zea mays [22]; 0.200 kg/ha): 0 (0 - No effect) | phytotoxicity rating ZEAMX (Zea mays [22]; 0.400 kg/ha): 0 (0 - No effect) | phytotoxicity rating ZEAMX (Zea mays [22]; 0.800 kg/ha): 7 (7 - Good herbicidal effect)
